Results reported in patent publication US4254278A, “1-Descarboxy-1-ketoester (ketoacid)-prostaglandins” (American Cyanamid Company, priority 1979, dated 1981).

Assays:
Format in all cases: in vivo, guinea pigs
[1] = tested on: bronchospasms elicited by histamine; test: Bronchodilator activity against histamine-induced bronchospasm (Konzett procedure); conditions: guinea pig; histamine spasmogen; three logarithmic cumulative intravenous doses
Description: (§1) The compounds of this invention are useful as bronchodilators for the treatment of asthma and chronic bronchitis. Bronchodilator activity is determined in guinea pigs against bronchospasms elicited by intravenous injections of 5-hydroxytryptamine, histamine or acetylcholine by the Konzett procedure. [See J. Lulling, P. Lievens, F. El Sayed and J. Prignot, Arzneimittel-Forschung, 18, 955 (1968).]
(§2) In Table which follows bronchodilator activity for representative compounds of this invention against one or more of three spasmogenic agents is expressed as an ED50 determined from the results obtained with three logarithmic cummulative intravenous doses. In this assay, these compounds of this invention provide an effect of longer duration than does natural 1-PGE1 or 1-PGE2.

[2] = tested on: bronchospasms elicited by acetylcholine; test: Bronchodilator activity against acetylcholine-induced bronchospasm (Konzett procedure); conditions: guinea pig; acetylcholine spasmogen; three logarithmic cumulative intravenous doses
Description: as §1, §2

[3] = tested on: bronchospasms elicited by 5-hydroxytryptamine; test: Bronchodilator activity against 5-hydroxytryptamine-induced bronchospasm (Konzett procedure); conditions: guinea pig; 5-hydroxytryptamine spasmogen; three logarithmic cumulative intravenous doses
Description: as §1, §2

Row | SMILES | ED50 HIST. [1] | ED50 ACH [2] | ED50 5HT [3]
1 | CCCCC(C)(O)C/C=C/C1C(O)CC(=O)C1/C=C\CCCCC(=O)C(=O)OCC (stereo not drawn) [d1-1,9-dioxo-1-carbethoxy-11α,16-dihydroxy-16-methyl-6-cis-13-trans-prostadiene] | 9310 Mg/kg × 10^-6 | 5920 Mg/kg × 10^-6 | 9510 Mg/kg × 10^-6
2 | CCCCCC(C)(O)/C=C/C1C(O)CC(=O)C1CCCCCCC(=O)C(=O)OCC (stereo not drawn) [d1-1,9-dioxo-1-carbethoxy-11α,15-dihydroxy-15-methyl-13-trans-prostene] | 6050 Mg/kg × 10^-6 | > 3.2 Mg/kg × 10^-6 | 4220 Mg/kg × 10^-6
